PubChem BioAssay AID330 (DTP/NCI, 2004)
Where “and” joins values, the source holds several entries; their conditions need not be identical. Equal values may be shown once. Toxic doses and inconclusive results are not listed. Rule for the calls: active = survival T/C of 150% or more; inactive = T/C below 125% in these data.

System: P388 leukemia ip, CD2F1 mice, survival T/C
Assay: NCI In Vivo Anticancer Drug Screen. Data for tumor model P388 Leukemia (intraperitoneal) in CD2F1 (CDF1) mice
Details: endpoint: median survival time, higher = longer survival
In short: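 Mice carrying the transplanted tumor received test compound or vehicle. Survival was recorded in each group, and the value is the treated-group measurement divided by that of the vehicle-treated control group.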

[1] = dose: 50.0 mg/kg/injection, schedule: Q01DX009 (ip), vehicle: saline with Tween-80
[2] = dose: 100.0 mg/kg/injection, schedule: Q01DX009 (ip), vehicle: saline with Tween-80
[3] = dose: 100.0 mg/kg/injection, schedule: Q04DX003 (ip), vehicle: saline with Tween-80
[4] = dose: 200.0 mg/kg/injection, schedule: Q01DX009 (ip), vehicle: saline with Tween-80
[5] = dose: 200.0 mg/kg/injection, schedule: Q04DX003 (ip), vehicle: saline with Tween-80
[6] = dose: 400.0 mg/kg/injection, schedule: Q04DX003 (ip), vehicle: saline with Tween-80
[7] = dose: 25.0 mg/kg/injection, schedule: Q01DX009 (ip), vehicle: saline with Tween-80
[8] = dose: 200.0 mg/kg/injection, schedule: Q04DX002 (ip), vehicle: saline with Tween-80
[9] = dose: 50.0 mg/kg/injection, schedule: Q01DX005 (ip), vehicle: Klucel (hydroxypropylcellulose) (HPC)
[10] = dose: 12.5 mg/kg/injection, schedule: Q01DX005 (ip), vehicle: Klucel (hydroxypropylcellulose) (HPC)
[11] = dose: 25.0 mg/kg/injection, schedule: Q01DX005 (ip), vehicle: Klucel (hydroxypropylcellulose) (HPC)
[12] = dose: 50.0 mg/kg/injection, schedule: Q01DX005 (ip), vehicle: saline with Tween-80
[13] = dose: 100.0 mg/kg/injection, schedule: Q01DX005 (ip), vehicle: saline with Tween-80
[14] = dose: 200.0 mg/kg/injection, schedule: Q01DX005 (ip), vehicle: saline with Tween-80
[15] = dose: 60.0 mg/kg/injection, schedule: Q01DX005 (ip), vehicle: saline with Tween-80
[16] = dose: 120.0 mg/kg/injection, schedule: Q01DX005 (ip), vehicle: saline with Tween-80
[17] = dose: 240.0 mg/kg/injection, schedule: Q01DX005 (ip), vehicle: saline with Tween-80

Measured: T/C

Cc1cc(Cl)c(C)cc1Cl
inactive: [1] 91 % of control | [2] 95 % of control | [3] 105 % of control | [4] 95 % of control | [5] 110 % of control | [6] 110 % of control

O=C(Nc1ccc(Cl)cc1)OC1CCS(=O)(=O)C1 (stereo unspecified)
inactive: dose: 100.0 mg/kg/injection, schedule: Q01DX009 (ip), vehicle: Klucel (hydroxypropylcellulose) (HPC) 100 % of control | dose: 200.0 mg/kg/injection, schedule: Q01DX009 (ip), vehicle: Klucel (hydroxypropylcellulose) (HPC) 89 % of control

CCCCCCC1(/C=C/c2ccc(Cl)cc2Cl)OCC(C)(C)CO1
inactive: dose: 50.0 mg/kg/injection, schedule: Q01DX009 (ip), vehicle: saline + alcohol 102 % of control | dose: 100.0 mg/kg/injection, schedule: Q01DX009 (ip), vehicle: saline + alcohol 102 % of control | dose: 200.0 mg/kg/injection, schedule: Q01DX009 (ip), vehicle: saline + alcohol 102 % of control

N#CC1(C#N)C2C=CC(C3CCC=C32)C1(C#N)C#N (stereo unspecified)
inactive: dose: 6.25 mg/kg/injection, schedule: Q01DX009 (ip), vehicle: Klucel (hydroxypropylcellulose) (HPC) 100 % of control | dose: 12.5 mg/kg/injection, schedule: Q01DX009 (ip), vehicle: Klucel (hydroxypropylcellulose) (HPC) 110 % of control | dose: 25.0 mg/kg/injection, schedule: Q01DX009 (ip), vehicle: Klucel (hydroxypropylcellulose) (HPC) 106 % of control

CC1(NC(=O)N(CCCl)N=O)CCCC1
inactive: [7] 104 % of control | [1] 104 % of control | dose: 50.0 mg/kg/injection, schedule: Q04DX003 (ip), vehicle: saline with Tween-80 100 % of control | [2] 109 % of control | [3] 100 % of control

COC(=O)C(N)C(C)O (stereo unspecified)
inactive: dose: 12.5 mg/kg/injection, schedule: Q01DX009 (ip), vehicle: water 97 % of control | dose: 25.0 mg/kg/injection, schedule: Q01DX009 (ip), vehicle: water 101 % of control | dose: 50.0 mg/kg/injection, schedule: Q01DX009 (ip), vehicle: water 89 % of control | dose: 100.0 mg/kg/injection, schedule: Q01DX009 (ip), vehicle: water 102 % of control | dose: 200.0 mg/kg/injection, schedule: Q01DX009 (ip), vehicle: water 102 % of control

COCCN(CCOC)C1C2=C(CCCC2)OS(=O)(=O)C1c1ccccc1 (stereo unspecified)
inactive: dose: 60.0 mg/kg/injection, schedule: Q01DX005 (ip), vehicle: Klucel (hydroxypropylcellulose) (HPC) 101 % of control | dose: 120.0 mg/kg/injection, schedule: Q01DX005 (ip), vehicle: Klucel (hydroxypropylcellulose) (HPC) 105 % of control | dose: 240.0 mg/kg/injection, schedule: Q01DX005 (ip), vehicle: Klucel (hydroxypropylcellulose) (HPC) 104 % of control

CN(c1ccccc1)C1C2=C(OC(=O)C1(Cl)Cl)c1sc(-c3ccccc3)nc1CC2 (stereo unspecified)
inactive: dose: 12.5 mg/kg/injection, schedule: Q04DX002 (ip), vehicle: saline with Tween-80 93 % of control | dose: 25.0 mg/kg/injection, schedule: Q04DX002 (ip), vehicle: saline with Tween-80 97 % of control | dose: 50.0 mg/kg/injection, schedule: Q04DX002 (ip), vehicle: saline with Tween-80 93 % of control | [8] 86 % of control

O=c1[nH]c(=O)c2cc(Cl)cc(Cl)c2[nH]1
inactive: dose: 50.0 mg/kg/injection, schedule: Q01DX001 (ip), vehicle: saline with Tween-80 90 % of control | dose: 100.0 mg/kg/injection, schedule: Q01DX001 (ip), vehicle: saline with Tween-80 90 % of control | dose: 200.0 mg/kg/injection, schedule: Q01DX001 (ip), vehicle: saline with Tween-80 90 % of control

COc1cc(CC(CC(=O)c2ccc3c(c2)OCO3)C(=O)O)cc(OC)c1OC (stereo unspecified)
inactive: [9] 94 % of control | dose: 100.0 mg/kg/injection, schedule: Q01DX005 (ip), vehicle: Klucel (hydroxypropylcellulose) (HPC) 99 % of control | dose: 200.0 mg/kg/injection, schedule: Q01DX005 (ip), vehicle: Klucel (hydroxypropylcellulose) (HPC) 94 % of control

OCc1nccn1-c1ccccc1
inactive: dose: 25.0 mg/kg/injection, schedule: Q04DX002 (ip), vehicle: suspension in saline 100 % of control | dose: 50.0 mg/kg/injection, schedule: Q04DX002 (ip), vehicle: suspension in saline 99 % of control | dose: 100.0 mg/kg/injection, schedule: Q04DX002 (ip), vehicle: suspension in saline 107 % of control | dose: 200.0 mg/kg/injection, schedule: Q04DX002 (ip), vehicle: suspension in saline 100 % of control

FC(F)(F)c1ccccc1N=Nc1c(-c2ccccc2)nn(C(=S)S)c1-c1ccccc1
inactive: dose: 100.0 mg/kg/injection, schedule: Q04DX002 (ip), vehicle: saline with Tween-80 93 % of control | [8] 91 % of control | dose: 400.0 mg/kg/injection, schedule: Q04DX002 (ip), vehicle: saline with Tween-80 100 % of control

C#CCC(C(C)=O)C(C)=O.[C-]#[O+].[C-]#[O+].[C-]#[O+].[C-]#[O+].[C-]#[O+].[C-]#[O+].[Co].[Co]
inactive: [10] 108 % of control | [11] 102 % of control | [9] 108 % of control and 95 % of control

O=C(CN(Cc1ccccc1)Cc1ccccc1)C(O)C1OC(c2ccccc2)OCC1O (stereo unspecified)
inactive: [12] 91 % of control | [13] 88 % of control | [14] 89 % of control

C1CC[N-]CC1.C1CC[N-]CC1.C1CC[N-]CC1.C1CC[N-]CC1.[Cl][Rh][Cl]
inactive: dose: 3.13 mg/kg/injection, schedule: Q01DX009 (ip), vehicle: saline with Tween-80 120 % of control | dose: 4.0 mg/kg/injection, schedule: Q01DX009 (ip), vehicle: saline 118 % of control | dose: 6.25 mg/kg/injection, schedule: Q01DX009 (ip), vehicle: saline with Tween-80 120 % of control and 123 % of control | dose: 12.5 mg/kg/injection, schedule: Q01DX009 (ip), vehicle: saline with Tween-80 120 % of control | [7] 92 % of control

O=C(NCCCBr)Nc1cccc2c1CCCC2
inactive: [2] 100 % of control | [3] 100 % of control | [4] 100 % of control | [5] 108 % of control | dose: 400.0 mg/kg/injection, schedule: Q01DX009 (ip), vehicle: saline with Tween-80 100 % of control | [6] 100 % of control

NNC(=O)CNc1cc(Cl)cc(Cl)c1
inactive: [15] 113 % of control | [16] 97 % of control | [17] 100 % of control

S=C([S-])N[N-]c1ccccc1.S=C([S-])N[N-]c1ccccc1.[Ni]
inactive: [3] 97 % of control | [5] 100 % of control | [6] 100 % of control

CCc1ccc(NS(=O)(=O)c2ccc(F)cc2)cc1
inactive: [15] 104 % of control | [16] 104 % of control | [17] 96 % of control

O=C(Nc1ccc(Cl)cc1)NC1OC(=O)C(Cl)=C1Cl (stereo unspecified)
inactive: dose: 6.25 mg/kg/injection, schedule: Q01DX009 (ip), vehicle: saline 105 % of control | dose: 12.5 mg/kg/injection, schedule: Q01DX009 (ip), vehicle: saline 108 % of control | dose: 25.0 mg/kg/injection, schedule: Q01DX009 (ip), vehicle: saline 106 % of control | dose: 50.0 mg/kg/injection, schedule: Q01DX009 (ip), vehicle: saline 117 % of control | dose: 100.0 mg/kg/injection, schedule: Q01DX009 (ip), vehicle: saline 106 % of control

Cc1ccc2c(c1)nc(-c1ccccn1)n2CCc1ccccn1
inactive: dose: 50.0 mg/kg/injection, schedule: Q04DX002 (ip), vehicle: Klucel (hydroxypropylcellulose) (HPC) 100 % of control | dose: 100.0 mg/kg/injection, schedule: Q04DX002 (ip), vehicle: Klucel (hydroxypropylcellulose) (HPC) 102 % of control | dose: 200.0 mg/kg/injection, schedule: Q04DX002 (ip), vehicle: Klucel (hydroxypropylcellulose) (HPC) 105 % of control

O=c1c2[nH]c3ccccc3sc=2c(=O)n1-c1cccc(Cl)c1
inactive: [12] 102 % of control | [13] 102 % of control | [14] 105 % of control

COc1cc2c3c(c1OC)C(=O)C[C@@H]1CCCN(CC2)[C@H]31
inactive: [10] 99 % of control | [11] 98 % of control

COc1ccc2oc3c(ccc(=O)n3C)c(=O)c2c1
inactive: dose: 0.69 mg/kg/injection, schedule: Q01DX001 (ip), vehicle: saline with Tween-80 99 % of control | dose: 138.0 mg/kg/injection, schedule: Q01DX001 (ip), vehicle: saline with Tween-80 96 % of control | dose: 276.0 mg/kg/injection, schedule: Q01DX001 (ip), vehicle: saline with Tween-80 91 % of control
